Data set [1] addresses T1, BCRP (Homo sapiens, UniProt Q9UNQ0).
T1 construct: endogenous in cells; host or cells: HT29 parental and HT29 SN38-resistant colorectal cancer cells
T1 sequence (Q9UNQ0 1-655): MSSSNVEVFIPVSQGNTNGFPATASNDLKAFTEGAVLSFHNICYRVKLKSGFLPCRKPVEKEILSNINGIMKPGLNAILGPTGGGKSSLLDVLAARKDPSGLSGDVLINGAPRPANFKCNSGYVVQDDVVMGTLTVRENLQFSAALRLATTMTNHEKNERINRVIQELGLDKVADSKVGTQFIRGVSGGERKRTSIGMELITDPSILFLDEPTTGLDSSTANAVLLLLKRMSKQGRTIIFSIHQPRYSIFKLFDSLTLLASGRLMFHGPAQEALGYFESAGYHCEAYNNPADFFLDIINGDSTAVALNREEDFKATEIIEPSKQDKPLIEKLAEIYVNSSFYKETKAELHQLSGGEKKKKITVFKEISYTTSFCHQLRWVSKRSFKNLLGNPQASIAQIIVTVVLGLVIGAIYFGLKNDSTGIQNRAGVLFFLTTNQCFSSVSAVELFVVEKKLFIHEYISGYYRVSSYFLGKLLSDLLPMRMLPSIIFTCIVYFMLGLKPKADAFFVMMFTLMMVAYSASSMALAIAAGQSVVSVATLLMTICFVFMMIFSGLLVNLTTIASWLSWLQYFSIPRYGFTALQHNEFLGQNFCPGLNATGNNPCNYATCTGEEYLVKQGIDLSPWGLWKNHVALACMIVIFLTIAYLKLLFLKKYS
Put plainly: 3H-SN-38 uptake in HT29 SN-38 resistant cell monolayers (Example 6). Format: cell-based. As for the experimental part: (§1) All treatments were investigated in three technical replicates (N=3). On the day of experimentation, the culture media was exchanged with 100 μL transport buffer (HBSS, 0.05% BSA, 10 mM HEPES, pH 7.4) and cells were incubated for 15 minutes at 37° C.
(§2) Subsequently, the blank transport buffer was exchanged with 50 μL transport buffer containing the different compounds (in 2x of the final concentration) to be tested and incubated for 15 minutes at 37° C. The uptake experiment was started by adding 50 μL of ^3H-SN38 at a concentration of 2 μCi/mL to all wells (the resulting concentration of ^3H-SN38 during the experiment was 1 μCi/mL). The uptake experiment was stopped after 15 minutes of incubation at 37° C. by removing the transport buffer from all wells.
(§3) The cell monolayers were subsequently washed twice by adding/removing ice-cold transport buffer twice and finally the cell monolayers were lysed by incubation in 100 μl of 0.1% TritonX-100 for 15 minutes at ambient temperature. Cell lysates were transferred to scintillation vials containing 2 mL of scintillation fluid (Ultima Gold, PerkinElmer). Each well was washed with 2×100 μL purified water (milliQ), which was also transferred to respective scintillation vials.

Data set [2] addresses T1, BCRP. The experiment in a line: 3H-SN-38 uptake in HT29 parental cell monolayers (Example 6). Format: cell-based. The protocol:
as §1, §2, §3

Data set [3] is described as follows: SN-38 PK profile and tolerability in metastatic colorectal cancer patients treated with SCO-101 and FOLFIRI (Example 2). Format: in vivo, human. The protocol:
Patients with metastatic colorectal cancer were included in a study and treated with a combination of SCO-101 and FOLFIRI (combination of irinotecan, 5-FU and leucovorin) in 14 day treatment cycles. Patients received varying doses of Irinotecan between 50% and 80% of the recommended dose of Irinotecan (180 mg/m^2) according to their individual tolerability, which is standard practise. On days 1, 2, 3, 4, 5 and 6 in each treatment cycle, patients received one fixed daily dose of 150 mg SCO-101 taken in the morning at least 30 minutes before ingestion of food. On day 5 to 7, patients received FOLFIRI as specified for Colorectal cancer combination regimen 2.
Blood plasma samples were analysed for concentrations of SCO-101, irinotecan and SN-38 using Liquid Chromatography with Tandem Mass Spectrometric Detection (LC-MS/MS) bioanalytical method calibrated and validated in the rant 300 to 90.000 ng/ml. The method and system, including validation were according to industry standard. Data were analysed using commercially available software such as Win-Non-Lin (available from Certara inc.)
A trial was setup to address the safety, tolerability, and efficacy of SCO-101 given orally for 6 days followed by FOLFIRI at varying doses from day 5 to 7, in a biweekly schedule, in patients with metastatic colorectal cancer who have formerly been treated with FOLFIRI and afterwards progressed. The first part of the study was a dose-finding study, where the impact of SCO-101 on the pharmacokinetics (PK) of SN-38 was studied.
12 patients from the dose-finding part of the study received 150 mg SCO-101 for 6 days and […] of the recommended dose of FOLFIRI. 6 of the patients had RAS wildtype tumors and these patients were subjected to further analysis.
Blood for pharmacokinetic analysis was sampled from the patients were taken at 1, 2, 4, 8, 24, 48, and 96 hours after treatment with FOLFIRI and SCO-101.

In a further data set the target is T2, ABCG2 (Homo sapiens, UniProt Q9UNQ0).
T2 construct: endogenous in cells; host or cells: HT29 and LoVo, parental and SN38-resistant
T2 sequence (Q9UNQ0 1-655): T1 sequence (Q9UNQ0 1-655)
The experiment in a line: Protein analysis of ABCG2 (western blot) in colon cancer cells (Example 4). Format: cell-based. The text has this:
Pairs of parental (sensitive) and SN38-resistant human colon cancer cell lines (HT29 and LoVo) were used. ABCG2 overexpression and effects of SCO-101 on ABCG2 was investigated by western blot, qPCR, dye-flux assays, bi-directional flux assays, 3H-SN38 accumulation assays and vesicular uptake assays. The effect of SCO-101 on SN38 re-sensitization was investigated by cell viability assays (MTT/PrestoBlue) and clonogenic assays.
Background: A western blot detects proteins with antibodies after separation by electrophoresis.

In general, EC50 refers to the concentration at which the effect is half-maximal.

Consider `O=C(Nc1cc(C(F)(F)F)cc(C(F)(F)F)c1)Nc1ccc(Br)cc1-c1nnn[nH]1` [SCO-101], for which the “Uptake of SN-38 in the presence vs absence of SCO-101, all seeded cell densities” value at BCRP [1] (25 μM SCO-101, HT29 SN-38 resistant) is listed as “increased uptake”; at BCRP [2] (25 μM SCO-101, HT29 parental), “increased uptake”. For the same molecule, the “Uptake of SN-38 relative to blank HBSS transport buffer control” value at BCRP [1] (25 μM test compound, HT29 SN-38 resistant, ANOVA α=0.05) was “significantly increased”; on BCRP [2] (25 μM test compound, HT29 parental, ANOVA α=0.05) it was “significantly increased”. The 50% effective concentration (EC50) on BCRP [1] (HT29 SN-38 res cell monolayers, read-out: Estimated EC50-value for increase in uptake of SN-38) is 9.8 µM; on BCRP [2] (HT29 parental cell monolayers, read-out: Estimated EC50-value for increase in uptake of SN-38), 9.1 µM. Besides, the “Uptake of SN-38 with increasing concentrations of SCO-101” value at BCRP [1] (SCO-101 100 to 0.5 μM, HT29 SN-38 resistant) is recorded as “concentration-dependent increase”; on BCRP [2] (SCO-101 100 to 0.5 μM, HT29 parental) it was “concentration-dependent increase”. In data set [3] (SCO-101 in combination with FOLFIRI, metastatic colorectal cancer patients), the “Tolerability of the combined treatment” value is reported as “well tolerated”. For the same molecule, the “Toxicity profile (adverse events)” value in data set [3] (patients treated with SCO-101 and 90 mg irinotecan/m2 (50% FOLFIRI)) is “only grade 1 and 2 adverse events”. For the same molecule, the “Effect on ABCG2 protein” value at ABCG2 is on record as “causes degradation of ABCG2”.
